Each block holds one molecule with its values, some of them ahead of it.
Legend:
DYRK1A = DYRK1A (Homo sapiens, UniProt Q13627); experiment: KINOMEscan qPCR-based binding assay; conditions: for fold improvement in DYRK1A binding (Kd) as compared to hit 3–1: ratio of Kd
human β-cell [1] = experiment: Human β-cell proliferation assay; format: cell-based; conditions: 5 μM, 96 hours, KI67 labeling of insulin-labeled cells, compared to vehicle-treated cells
human β-cell [2] = conditions: cited from earlier work

fold improvement in DYRK1A binding (Kd) as compared to hit 3–1 (DYRK1A): 4 fold
SMILES: CC(NC1=NN=C(c2ccc3[nH]c(=O)[nH]c3c2)CS1)c1ccccc1 (centres unmarked) [3–16, N-(1-phenylethyl)-5-(benzo[d]imidazol-2(3H)-one)-6H-1,3,4-thiadiazin-2-amine]

SMILES: O=c1[nH]c2ccc(C3=NN=C(NCc4ccc(F)cc4)SC3)cc2[nH]1 [Compound 3–5, N-(4-fluorobenzyl)-5-(benzo[d]imidazol-2(3H)-one)-6H-1,3,4-thiadiazin-2-amine]
human β-cell proliferation (human β-cell [1]): induced human β-cell proliferation

SMILES: COc1ccc2c(c1)[nH]c1c(C)nccc12 [Harmine, reference compound]
% DMSO Ctrl, DYRK1A (DYRK1A): < 1% | fold induction in human pancreatic β-cell proliferation (human β-cell [2]): 10–15 fold

SMILES: O=c1[nH]c2ccc(C3=NN=C(NCc4cccnc4)SC3)cc2[nH]1 [3–13, N-(pyridine-3yl)methyl-5-(benzo[d]imidazol-2(3H)-one)-6H-1,3,4-thiadiazin-2-amine]
fold improvement in DYRK1A binding (Kd) as compared to hit 3–1 (DYRK1A): 5 fold

— article PMC6396881 (European journal of medicinal chemistry, 2018)
